What all share (format): cell-based
Test [1] deals with Rat Cortical Cultures. Kind of test: Neurite Outgrowth MAP2-FITC Assay for Rat Cortical Cells. The settings on record: one week in culture, mean of eight observations. The text has this: (§1) Dissociated hippocampal and cortical cell cultures were established from embryonic Day 18 rat fetuses as previously described (Mattson et al., 1994). Briefly, fetuses were removed via cesarean section from pregnant rats (Sprague-Dawley) and anesthetized with halothane according to the AVMA Panel on Euthanasia. Fetuses were decapitated and the brains were removed and placed in HEPES-buffered Hank's Balanced Salt solution (HBSS; Gibco). The hippocampi and cortices were dissected out and pooled according to tissue-type. Tissue was trypsinized for fifteen minutes (1 mg/ml trypsin-HBSS; Worthington), rinsed with fresh HBSS, incubated in trypsin inhibitor (1 mg/ml; Sigma) for five minutes, rinsed again with fresh HBSS and then triturated in 1 ml fresh HBSS with a fire-polished glass pipette. Dissociated cells were seeded at 20,000 cells (Array Scan Assay) and 30,000 cells (MAP2-FITC assay)/well onto poly-D-lysine coated 96-well plates (Collaborative BioScience). Each well contained 100 μl of Eagle's Minimal Essential Media (MEM; Gibco) supplemented with 26 mM NaHCO3 (Sigma), 56 mM glucose (Sigma), 15 mM KCl (Sigma), 1 mM sodium pyruvate (Sigma), 1.1 mM L-glutamine (Sigma), 10% (v/v) heat-inactivated fetal bovine serum (Hyclone), and 0.001% gentamicin sulfate (Sigma) (pH 7.4). Cells were allowed to attach for twenty-four hours in a humidified 37° C. 5% CO2 incubator before experimental treatment. The culture media was aspirated and exchanged with fresh media every three days.
(§2) Twenty-four hours after plating, rat cortical cell cultures, prepared as in Example 1, were treated with vehicle (phosphate buffered saline+0.1% bovine serum albumin; Sigma), topiramate, EPO (rhEPO; 50 μM stock in 0.2 M citrate, 0.585 g/L NaCl diluted to appropriate concentrations in phosphate buffered saline+0.1% bovine serum albumin (BSA; Sigma)) or a combination of topiramate and EPO. On the third day in culture, the media was aspirated off and replaced with fresh media and test compound. At one week in culture, the cells were fixed with 10% phosphate-buffered formalin for fifteen minutes, then rinsed with phosphate buffered saline and placed in blocking serum for thirty minutes (horse serum; 1:50 dilution in phosphate buffered saline; Vector Labs). Cultures were rinsed again with phosphate buffered saline and then incubated in primary antibody for two hours (microtubule-associated protein-2 (MAP-2) is a selective marker for dendritic processes; anti-mouse monoclonal (Chemicon); 1:1000 dilution of MAP-2 in antibody diluent (Zymed)). Negative control wells were incubated in antibody diluent alone. Background signal was determined by blank wells (cell-free) incubated with or without antibody. Cultures were rinsed again with phosphate buffered saline and then placed in fluorescein-labeled secondary antibody for one hour (FITC; anti-mouse IgG; rat adsorbed; 1:50 dilution in DPBS; Vector Labs). Cultures were rinsed a final time with phosphate buffered saline. The plates were then read on a Cytofluor 4000 fluorescence plate reader. Neurite outgrowth was expressed as percent change from control (vehicle; mean fluorescence±SEM).
The ability of rhEPO, topiramate and the combination of rhEPO and topiramate to increase neurite outgrowth in rat cortical cultures was determined according to the procedure described above, with results as listed in Table 3. For each case or treatment, the measured value in the Table represents the mean percent change of eight experimental observations (from vehicle control). The abbreviation NT, as used in Table 3 represents a concentration not tested.

For a further test, the system named is Rat Hippocampal Cultures. Kind of test: Neurite Outgrowth MAP2-FITC Assay for Rat Hippocampal Cells. The following applies: one week in culture, mean of eight observations.
Source text: as §1
as §2, with “hippocampal” for “cortical”, “1 hr” for “one hour”
The ability of rhEPO, topiramate and the combination of rhEPO and topiramate to increase neurite outgrowth in rat hippocampal cultures was determined according to the procedure described above, with results as listed in Table 2. For each case or treatment, the measured value in the Table represents the mean percent change of eight experimental observations (from vehicle control). The abbreviation NT, as used in Table 2 represents a concentration not tested.

Test [2] concerns Rat Cortical Cultures. Kind of test: Array Scan Assay, Neurite Outgrowth (Neuron-specific). The following applies: mean of eight observations.
Source text: as §1
Twenty-four hours after plating, rat cerebral cortical cell cultures, prepared as described above, were treated with vehicle (phosphate buffered saline+0.1% bovine serum albumin; Sigma), topiramate, EPO (rhEPO; 50 μM stock in 0.2 M citrate, 0.585 g/L NaCl diluted to appropriate concentrations in phosphate buffered saline+0.1% bovine serum albumin (BSA; Sigma)) or a combination of topiramate and EPO. On the third day in culture, the media was aspirated off and replaced with fresh media and test compound.
Culture media (prepared as described above) was aspirated and replaced with formaldehyde/Hoechst solution (fix cells and stain nuclei). Cultures were incubated in this solution for twenty minutes, then washed with permeabilization/wash/antibody (PWA) buffer. The buffer solution was aspirated and 100 μl of primary antibody (rabbit polyclonal IgG; specific for an epitope present only in neurons and neurites) was added to each well. The cultures were incubated for 60 minutes, then washed with PWA buffer. The buffer solution was again aspirated and 100 μl of secondary antibody (Alexa Fluor 488 conjugated goat anti-rabbit IgG) was added to each well. The cultures were incubated for 60 minutes and then washed with PWA buffer, followed by phosphate buffered saline (PBS) solution.
100 μl PBS-CM were added to each well, the plates were sealed and fluorescence was read on the Array Scan II System. (All reagents for this measurement were provided by the neurite outgrowth hit kit # K07-0001-1, Cellomics Inc.) The Array Scan algorithm for neurite outgrowth calculates the neurite outgrowth index for each field per well. This number represents the number of neurons with neurites divided by the total number of neurons in the field.
The ability of rhEPO, topiramate (TPM) and the combination of rhEPO and topiramate to increase neurite outgrowth in rat cortical cell cultures was determined according to the procedure described above, with results as listed in Table 1. For each dosage concentration, the measured value in the Table represents the mean percent change of eight experimental observations (from vehicle control). The abbreviation NT, as used in the Table below represents a concentration not tested.

Where [3] appears, read: Concentration 1 pM (rhEPO concentration in combinations).
The mark [4] stands for this setting: Concentration 10 pM (rhEPO concentration in combinations).
Where [5] appears, read: Concentration 1 fM (rhEPO concentration in combinations).
The mark [6] stands for this setting: Concentration 10 fM (rhEPO concentration in combinations).
The mark [7] stands for this setting: Concentration 100 fM (rhEPO concentration in combinations).

As to “rhEPO: Recombinant human erythropoietin; amino acid sequence identical to that of human urinary erythropoietin”, the “Neurite outgrowth, mean percent change from vehicle control (Measured)” value (shortened to “Neurite outgrowth, mean percent change”) in the test with Rat Cortical Cultures [1] (setting [3]) was 19%; with Rat Cortical Cultures [1] (setting [4]), 24%; with Rat Cortical Cultures [1] (setting [5]) it was −14%; in the test with Rat Cortical Cultures [1] (setting [6]) it was −2%; in the test on Rat Cortical Cultures [1] (setting [7]), 10%; with Rat Hippocampal Cultures (setting [3]), 20%. Moreover, the “Neurite outgrowth, mean percent change” value is recorded as 21% in the test on Rat Hippocampal Cultures (setting [4]); 21% in the test on Rat Hippocampal Cultures (setting [5]); 15% in the test with Rat Hippocampal Cultures (setting [6]); 12% in the test with Rat Hippocampal Cultures (setting [7]); 9% in the test with Rat Cortical Cultures [2] (setting [3]); 11% in the test on Rat Cortical Cultures [2] (setting [4]). Also, the results for the “Neurite outgrowth, mean percent change” value in the test with Rat Cortical Cultures [2] (setting [5]), in the test on Rat Cortical Cultures [2] (setting [6]) and in the test on Rat Cortical Cultures [2] (setting [7]) were 29%, −1% and 28%, respectively.

With `CC1(C)O[C@@H]2[C@@H](CO[C@@]3(COS(N)(=O)=O)OC(C)(C)O[C@@H]23)O1` [Topiramate, 2,3:4,5-bis-O-(1-methylethylidene)-β-D-fructopyranose sulfamate, reference compound], the “Neurite outgrowth, mean percent change” value in the test on Rat Cortical Cultures [1] (setting [3]) stood at 23%; in the test on Rat Cortical Cultures [1] (setting [4]), 30%; in the test on Rat Cortical Cultures [1] (Concentration 100 pM) it was 37%; with Rat Cortical Cultures [1] (setting [7]), 24%; with Rat Hippocampal Cultures (setting [3]) it was 14%; with Rat Hippocampal Cultures (setting [4]), 5%. Moreover, the “Neurite outgrowth, mean percent change” value in the test on Rat Hippocampal Cultures (Concentration 100 pM) is −9%; with Rat Hippocampal Cultures (setting [7]), 33%; in the test with Rat Cortical Cultures [2] (setting [3]), 0%; with Rat Cortical Cultures [2] (setting [4]), 20%; in the test with Rat Cortical Cultures [2] (Concentration 100 pM), 12%; in the test with Rat Cortical Cultures [2] (setting [7]), 4%.

(Values after US6908902B2, “Treatment of neurological dysfunction comprising fructopyranose sulfamates and erythropoietin” (Ortho-McNeil Pharmaceutical, Inc., priority 2001, dated 2005).)
